In US20050130989A1, “N-arylheteroaromatic products compositions containing them and use thereof” (Aventis Pharma S. A., priority 2003, published 2005):

How the values were obtained:
HCT116 cells = test: Inhibition of proliferation of the human colon tumor line HCT116 ([14C]-thymidine incorporation); assay type: cell-based; settings: Homo sapiens, HCT-116, 48 h, 48 hours at 37° C., read-out: Inhibition of HCT116 proliferation IC 50 (μm)
Outline: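 HCT116 cells (5000/well) in DMEM with 10% fetal calf serum incubated 48 h at 37° C with [14C]-thymidine (0.1 μCi/well) and compound up to 10 μm (DMSO ≤0.5%). Incorporated radioactivity counted; IC50 is concentration cutting radioactivity by 50% versus untreated control.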

tubulin = target: T1, tubulin (Sus scrofa, UniProt P02550+P02554); test: Evaluation of the inhibition of tubulin polymerization (turbidimetry); assay type: biochemical, pig; settings: tubulin 10 μm (1 mg/ml), 37° C., turbidity at 350 nm; concentration that inhibits the rate of polymerization by 50%; read-out: Inhibition of tubulin polymerization IC 50 (μm)
T1 construct: Tubulin is purified from pig brain according to published methods; from tissue; host or cells: pig brain
Outline: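 Pig brain tubulin (>95% pure), 10 μm in MES pH 6.8/30% glycerol buffer plus 1 mM GTP and 6 mM MgCl2, with compound at 0.5–10 μm added before polymerization. Polymerization triggered by shift from 6° C to 37° C, followed by turbidity at 350 nm; IC50 is 50% inhibition of polymerization rate.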

T1 sequence (P02550 whole entry): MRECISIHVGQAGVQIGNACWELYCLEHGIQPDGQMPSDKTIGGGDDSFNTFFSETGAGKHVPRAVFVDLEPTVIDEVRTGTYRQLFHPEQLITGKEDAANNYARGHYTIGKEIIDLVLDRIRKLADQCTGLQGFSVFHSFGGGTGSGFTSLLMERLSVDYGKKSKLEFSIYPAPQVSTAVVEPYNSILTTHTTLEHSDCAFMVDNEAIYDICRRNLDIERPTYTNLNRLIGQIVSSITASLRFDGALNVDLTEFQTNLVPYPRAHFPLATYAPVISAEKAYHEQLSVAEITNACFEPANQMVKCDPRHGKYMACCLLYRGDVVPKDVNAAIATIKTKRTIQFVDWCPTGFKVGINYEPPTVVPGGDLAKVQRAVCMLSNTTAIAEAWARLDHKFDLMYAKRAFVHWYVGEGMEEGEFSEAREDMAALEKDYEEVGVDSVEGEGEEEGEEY
T1 sequence (P02554 whole entry): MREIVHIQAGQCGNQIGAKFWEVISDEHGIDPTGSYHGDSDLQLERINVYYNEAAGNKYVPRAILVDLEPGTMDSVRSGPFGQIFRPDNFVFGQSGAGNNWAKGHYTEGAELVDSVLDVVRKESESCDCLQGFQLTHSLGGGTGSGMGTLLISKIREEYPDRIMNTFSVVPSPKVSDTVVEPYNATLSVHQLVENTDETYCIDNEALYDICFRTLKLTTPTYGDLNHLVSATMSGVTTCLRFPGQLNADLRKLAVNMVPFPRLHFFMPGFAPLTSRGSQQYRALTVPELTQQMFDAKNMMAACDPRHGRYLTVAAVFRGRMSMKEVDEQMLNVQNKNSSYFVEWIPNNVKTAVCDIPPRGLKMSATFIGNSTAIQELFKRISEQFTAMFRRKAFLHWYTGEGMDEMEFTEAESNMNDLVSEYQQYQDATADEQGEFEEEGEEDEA

Row | IC50 (HCT116 cells) [nM] | IC50 (tubulin) [nM] | SMILES
1 | 47 | 2000 | Cc1cccc(-n2nc(C)cc2C(=O)N2CCN(c3ccccc3)CC2)c1 [3/44]
2 | 269 | 7000 | Cc1ccc(-n2nc(C)cc2C(=O)N2CCN(c3cccc(C)c3)CC2)cc1 [3/28]
3 | 17 | 1800 | Cc1cccc(N2CCN(C(=O)c3cc(C)nn3-c3cccc(F)c3)CC2)c1 [3/19]
4 | 14 | 1500 | Cc1cc(C(=O)N2CCN(c3cccc(C(F)(F)F)c3)CC2)n(-c2cccc(F)c2)n1 [3/91]
5 | 170 | 3000 | Cc1cc(C(=O)N2CCN(c3cc(Cl)ccc3C)CC2)n(-c2ccccc2)n1 [3/33]
6 | 1100 | 3420 | COc1cc(OC)cc(N2CCN(C(=O)c3cc(-c4ccc(C(F)(F)F)cc4)nn3-c3ccccc3)CC2)c1 [Example E89, [4-(3,5-Dimethoxyphenyl)piperazin-1-yl][2-phenyl-5-(4-trifluoromethylphenyl)-2H-pyrazol-3-yl]methanone]
7 | 729 | 2900 | Cc1cccc(-n2nc(C)cc2C(=O)N2CCN(c3ccc(C)c(C)c3)CC2)c1 [3/30]
8 | 3 | 800 | Cc1cc(C(=O)N2CCN(c3cccc([N+](=O)[O-])c3)CC2)n(-c2ccccc2)n1 [Example E5, [4-(3-Nitrophenyl)piperazin-1-yl](5-methyl-2-phenyl-2H-pyrazol-3-yl)-methanone]
9 | 73 | 3000 | COc1ccccc1N1CCN(C(=O)c2cc(C)nn2-c2cccc(C)c2)CC1 [3/45]
10 | 295 | 3500 | COc1cccc(-n2nc(C)cc2C(=O)N2CCN(c3ccc(Cl)c(Cl)c3)CC2)c1 [3/81]
11 | 75 | 1200 | Cc1cccc(-n2nc(C)cc2C(=O)N2CCN(c3ccc(Cl)c(Cl)c3)CC2)c1 [3/113]
12 | 22.1 | 1700 | Cc1cc(C(=O)N2CCN(c3ccc(C)c(Cl)c3)CC2)n(-c2ccccc2)n1 [3/151]
13 | 6150 | 1700 | O=C(c1cc(-c2cccs2)nn1-c1ccccc1)N1CCN(c2cccc(Cl)c2)CC1 [Example E69, [4-(3-Chlorophenyl)piperazin-1-yl][2-phenyl-5-(thiophen-2-yl)-2H-pyrazol-3-yl]methanone]
14 | 181 | 13000 | COc1ccccc1N1CCN(C(=O)c2cc(C)nn2-c2ccc(F)cc2)CC1 [3/102]
15 | 73 | 1300 | Cc1cc(C(=O)N2CCN(c3ccc(Cl)c(Cl)c3)CC2)n(-c2cccc(Cl)c2)n1 [3/65]
16 | 1130 | 4400 | O=C(c1cc(COCc2ccccc2)nn1-c1ccccc1)N1CCN(c2cccc(Cl)c2)CC1 [Example E80, (5-Benzyloxymethyl-2-phenyl-2H-pyrazol-3-yl)[4-(3-chlorophenyl)piperazin-1-yl]methanone]
17 | 3940 | 4500 | CSc1ccccc1N1CCN(C(=O)c2cc(C)nn2-c2ccc(F)cc2)CC1 [3/58]
18 | 4980 | 5700 | Cc1cc(C(=O)N2CCN(c3cccc4ccccc34)CC2)n(-c2ccc(F)cc2)n1 [3/59]
19 | 119 | 1800 | Cc1cc(C(=O)N2CCN(c3cccc(Cl)c3Cl)CC2)n(-c2ccccc2)n1 [3/36]
20 | 32 | 800 | Cc1cc(C(=O)N2CCN(c3cccc(C)c3C)CC2)n(-c2cccc(F)c2)n1 [3/94]

Row | IC50 (HCT116 cells) [nM] | IC50 (tubulin) [nM] | SMILES
21 | 36 | 1500 | CCc1ccccc1N1CCN(C(=O)c2cc(C)nn2-c2cccc(Cl)c2)CC1 [3/68]
22 | 347 | 18000 | Cc1cc(C(=O)N2CCN(c3ccc(Cl)cc3)CC2)n(-c2cccc(Cl)c2)n1 [3/69]
23 | 312 | 8000 | Cc1cccc(-n2nc(C)cc2C(=O)N2CCN(c3ccc(F)cc3)CC2)c1 [3/47]
24 | 4 | 2000 | COc1cccc(N2CCN(C(=O)c3cc(C)nn3-c3ccccc3F)CC2)c1 [3/15]
25 | 138 | 1900 | O=C(c1cc(CNc2ccccc2)nn1-c1ccccc1)N1CCN(c2cccc(Cl)c2)CC1 [Example E76, [4-(3-Chlorophenyl)piperazin-1-yl](2-phenyl-5-phenylaminomethyl-2H-pyrazol-3-yl)methanone]
26 | 1080 | 3000 | Cc1ccc(-n2nc(C)cc2C(=O)N2CCN(c3ccc(Cl)c(Cl)c3)CC2)cc1 [3/76]
27 | 339 | 1400 | O=C(c1cc(-c2ccsc2)nn1-c1ccccc1)N1CCN(c2cccc(Cl)c2)CC1 [Example E68, [4-(3-Chlorophenyl)piperazin-1-yl][2-phenyl-5-(thiophen-3-yl)-2H-pyrazol-3-yl]methanone]
28 | 16.7 | 1000 | Cc1cc(C(=O)N2CCN(c3cccc(NCCO)c3)CC2)n(-c2ccccc2)n1 [Example E103, {4-[3-(2-Hydroxyethylamino)phenyl]piperazin-1-yl}-(5-methyl-2-phenyl-2H-pyrazol-3-yl)methanone]
29 | 10.5 | 990 | Cc1cc(C(=O)N2CCN(c3cccc(Cl)c3)CC2)n(-c2ccccc2C)n1 [Example E45, [4-(3-Chlorophenyl)piperazin-1-yl](5-methyl-2-o-tolyl-2H-pyrazol-3-yl)methanone]
30 | 217 | 4500 | Cc1ccc(-n2nc(C)cc2C(=O)N2CCN(c3cccc(Cl)c3)CC2)cc1 [3/27]
31 | 7.9 | 1000 | COc1cccc(N2CCN(C(=O)c3cc(C)nn3-c3cccc(C)c3)CC2)c1 [3/49]
32 | 145 | 1100 | COc1cc(OC)cc(N2CCN(C(=O)c3cc(C(F)(F)F)nn3-c3cccc(C#N)c3)CC2)c1 [Example E56, 3-{5-[4-(3,5-Dimethoxyphenyl)piperazine-1-carbonyl]-3-trifluoromethylpyrazol-1-yl}benzonitrile]
33 | 238 | 3000 | COc1cccc(-n2nc(C)cc2C(=O)N2CCN(c3cc(Cl)ccc3OC)CC2)c1 [3/5]
34 | 28 | 2000 | Cc1cc(C(=O)N2CCN(c3cccc(Cl)c3)CC2)n(-c2cccc(F)c2)n1 [3/18]
35 | 73 | 2000 | Cc1cc(C(=O)N2CCN(c3ccc(C)c(C)c3)CC2)n(-c2cccc(Cl)c2)n1 [3/66]
36 | 14 | 800 | CNc1cccc(N2CCN(C(=O)c3cc(C)nn3-c3ccccc3)CC2)c1 [Example E34, [4-(3-Methylaminophenyl)piperazin-1-yl](5-methyl-2-phenyl-2H-pyrazol-3-yl)-methanone]
37 | 22.4 | 2200 | Cc1cc(C(=O)N2CCN(c3cccnc3)CC2)n(-c2ccccc2)n1 [3/153]
38 | 8.5 | 1500 | Cc1cc(C(=O)N2CCN(c3ccnc4ccccc34)CC2)n(-c2ccccc2)n1 [Example E17, (5-Methyl-2-phenyl-2H-pyrazol-3-yl)(4-quinolin-4-ylpiperazin-1-yl)methanone]
39 | 11.7 | 1370 | O=C(c1cc(CO)nn1-c1ccccc1)N1CCN(c2cccc(Cl)c2)CC1 [Example E60, (5-Hydroxymethyl-2-phenyl-2H-pyrazol-3-yl)[4-(3-chlorophenyl)piperazin-1l-yl]methanone]
40 | 0.17 | 800 | COc1cc(OC)cc(N2CCN(C(=O)c3cc(/C=N\O)nn3-c3ccccc3)CC2)c1 [Example E95, 5-[4-(3,5-Dimethoxyphenyl)piperazine-1-carbonyl]-1-phenyl-1H-pyrazole-3-carboxaldehyde oxime Z]
